In patent publication US7498343B2, “Mycobacterial inhibitors” (priority 2002, dated 2009):

Key:
[1] = tested on: Mycobacterium tuberculosis (strain H37RV); test: In-vitro method for testing compounds against M. tuberculosis (resazurin growth inhibition, MIC); format: cell-based; conditions: MIC data representing IC90's, 7 days incubation, resazurin fluorescence
M. Smegmatis ATCC607 = test: In-vitro method for testing compounds for anti-bacterial activity against strain M. smegmatis ATCC607 (Alamar Blue growth inhibition); format: cell-based; conditions: M. smegmatis ATCC607; pIC50 = -logIC50, IC50 in M, 50% inhibitory concentration for bacterial growth; 48 hours incubation
Procedure: C.2. In-vitro Method for Testing Compounds for Anti-bacterial Activity Against Strain M. Smegmatis ATCC607. […] Subsequently, stock solutions (7.8×final test concentration) of compounds were added in 45 μl volumes to a series of duplicate wells in column 2 so as to allow evaluation of their effects on bacterial growth. Serial five-fold dilutions (45 μl in 180 μl) were made directly in the microtiter plates from column 2 to 11 using a customised robot system (Zymark Corp., Hopkinton, Mass.). Pipette tips were changed after every 3 dilutions to minimize pipetting errors with high hydrophobic compounds. Untreated control samples with (column 1) and without (column 12) inoculum were included in each microtiter plate. Approximately 250 CFU per well of bacteria inoculum, in a volume of 100 μl in 2.8×Mueller-Hinton broth medium, was added to the rows […]. The same volume of broth medium without inoculum was added to column 12 in row A to H. The cultures were incubated at 37° C. for 48 hours in a humidified 5% CO2 atmosphere (incubator with open air valve and continuous ventilation). At the end of incubation, two days after inoculation, the bacterial growth was quantitated fluorometrically. Therefore Alamar Blue (10×) was added to all wells in a volume of 20 μl and plates were incubated for another 2 hours at […] The fluorescence was read in a computer-controlled fluorometer (Cytofluor, Biosearch) at an excitation wavelength of 530 nm and an emission wavelength of 590 nm (gain 30). The % growth inhibition achieved by the compounds was calculated according to standard methods.

Structure (SMILES)	MIC [1] [microgram/ml]	pIC50 (M. Smegmatis ATCC607)
COc1nc2ccc(Br)cc2cc1C(c1ccccc1)C(O)(CC[N+](C)(C)C)c1cccc2ccccc12.[I-] (racemic) [Compound 103]	5.54	5.9
COc1nc2ccc(Br)cc2cc1C(c1ccccc1)C(O)(CCN1CCOCC1)c1ccccc1 (racemic) [Compound 123]	54.75	4.2
COc1nc2ccc(Br)cc2cc1C(c1ccccc1)C(O)(CCN1CCOCC1)c1ccccc1 (racemic) [Compound 124]	54.75	5.3
COc1nc2ccc(Br)cc2cc1C(c1ccccc1)C(O)(CCN1CCN(C)CC1)c1ccc2ccccc2c1 (racemic) [Compound 136]	16.81	6.2
COc1nc2ccc(Br)cc2cc1C(c1ccccc1)C(O)(CCN1CCN(C)CC1)c1ccc2ccccc2c1 (racemic) [Compound 137]	42.23	4.6
COc1nc2ccc(Br)cc2cc1C(c1ccccc1)C(O)(CCN(C)C)c1ccc(F)c(F)c1 (racemic) [Compound 195]	6.82	6.5
COc1nc2ccc(Br)cc2cc1C(c1ccccc1)C(O)(CCN(C)C)c1ccc(F)c(F)c1 (racemic) [Compound 196]	1.71	6.6
COc1nc2ccc(Br)cc2cc1C(c1ccc(F)cc1)C(O)(CCN(C)C)c1cccc2ccccc12 (racemic) [Compound 205]	4.56	7.2
COc1nc2ccc(Br)cc2cc1C(c1ccc(F)cc1)C(O)(CCN(C)C)c1cccc2ccccc12 (racemic) [Compound 206]	9.09	6.5
COc1nc2ccc(F)cc2cc1C(c1ccccc1)C(O)(CCN(C)C)c1cc(F)cc(F)c1 (racemic) [Compound 207]	48.05	5.2
COc1nc2ccc(F)cc2cc1C(c1ccccc1)C(O)(CCN(C)C)c1cc(F)cc(F)c1 (racemic) [Compound 208]	0.38	7.9
COc1nc2ccc(Br)cc2cc1C(c1ccccc1)C(O)(CCN(C)C)c1ccc(Cl)cc1 (single isomer, unassigned) [Compound 16]	0.34	6.8
COc1nc2ccc(Br)cc2cc1C(c1ccccc1)C(O)(CCN(C)C)c1ccc(Cl)cc1 (single isomer, unassigned) [Compound 17]	1.71	6.5
COc1nc2ccc(Br)cc2cc1C(c1ccccc1)C(O)(CCN(C)C)c1cccs1 (single isomer, unassigned) [Compound 20]	40.63	5.9
COc1nc2ccc(Br)cc2cc1C(c1ccccc1)C(O)(CCN(C)C)c1cccs1 (single isomer, unassigned) [Compound 21]	16.17	5.4
COc1nc2ccc(C)cc2cc1C(c1ccccc1)C(O)(CCN(C)C)c1ccccc1 (single isomer, unassigned) [Compound 22]	1.11	7.2
COc1nc2ccc(C)cc2cc1C(c1ccccc1)C(O)(CCN(C)C)c1ccccc1 (single isomer, unassigned) [Compound 23]	8.79	6.4
COc1nc2ccc(Br)cc2cc1C(c1ccccc1)C(O)(CCN(C)C)c1ccsc1 (single isomer, unassigned) [Compound 24]	1.62	7.2
COc1nc2ccc(Br)cc2cc1C(c1ccccc1)C(O)(CCN(C)C)c1ccsc1 (single isomer, unassigned) [Compound 25]	20.36	5.2
COc1nc2ccc(-c3ccccc3)cc2cc1C(c1ccccc1)C(O)(CCN(C)C)c1ccccc1 (single isomer, unassigned) [Compound 26]	1.00	7.2
COc1nc2ccc(-c3ccccc3)cc2cc1C(c1ccccc1)C(O)(CCN(C)C)c1ccccc1 (single isomer, unassigned) [Compound 27]	7.97	5.9
COc1nc2ccc(F)cc2cc1C(c1ccccc1)C(O)(CCN(C)C)c1ccccc1 (single isomer, unassigned) [Compound 28]	1.41	7.3

Structure (SMILES)	MIC [1] [microgram/ml]	pIC50 (M. Smegmatis ATCC607)
COc1nc2ccc(F)cc2cc1C(c1ccccc1)C(O)(CCN(C)C)c1ccccc1 (single isomer, unassigned) [Compound 29]	44.46	5.9
COc1nc2ccc(Cl)cc2cc1C(c1ccccc1)C(O)(CCN(C)C)c1ccccc1 (single isomer, unassigned) [Compound 30]	1.46	7.8
COc1nc2ccc(Cl)cc2cc1C(c1ccccc1)C(O)(CCN(C)C)c1ccccc1 (single isomer, unassigned) [Compound 31]	7.31	5.8
CSc1nc2ccc(Br)cc2cc1C(c1ccccc1)C(O)(CCN(C)C)c1ccccc1 (single isomer, unassigned) [Compound 32]	0.33	7.4
CSc1nc2ccc(Br)cc2cc1C(c1ccccc1)C(O)(CCN(C)C)c1ccccc1 (single isomer, unassigned) [Compound 33]	8.27	6.0
COc1ccc2nc(OC)c(C(c3ccccc3)C(O)(CCN(C)C)c3ccccc3)cc2c1 (single isomer, unassigned) [Compound 34]	45.66	5.1
COc1ccc2nc(OC)c(C(c3ccccc3)C(O)(CCN(C)C)c3ccccc3)cc2c1 (single isomer, unassigned) [Compound 35]	1.82	6.8
COc1nc2ccc(Br)cc2cc1C(c1ccc(Cl)cc1)C(O)(CCN(C)C)c1ccccc1 (single isomer, unassigned) [Compound 36]	5.40	6.4
COc1nc2ccc(Br)cc2cc1C(c1ccc(Cl)cc1)C(O)(CCN(C)C)c1ccccc1 (single isomer, unassigned) [Compound 37]	0.34	7.9
COc1nc2ccccc2cc1C(c1ccccc1)C(O)(CCN(C)C)c1ccccc1 (single isomer, unassigned) [Compound 40]	21.38	4.7
COc1nc2ccccc2cc1C(c1ccccc1)C(O)(CCN(C)C)c1ccccc1 (single isomer, unassigned) [Compound 41]	8.51	5.9
COc1nc2ccccc2cc1C(c1ccccc1)C(C)(O)CCN(C)C (single isomer, unassigned) [Compound 42]	44.34	6.3
COc1nc2ccccc2cc1C(c1ccccc1)C(C)(O)CCN(C)C (single isomer, unassigned) [Compound 43]	44.34	4.4
COc1nc2ccc(Br)cc2cc1C(c1ccccc1)C(O)(CN(C)C)c1ccccc1 (single isomer, unassigned) [Compound 61]	39.04	4.5
COc1nc2ccc(Br)cc2cc1C(c1ccccc1)C(O)(CN(C)C)c1ccccc1 (single isomer, unassigned) [Compound 62]	7.79	5.9
COc1nc2ccc(Br)cc2cc1C(c1ccccc1)C(O)(CCCN(C)C)c1ccccc1 (single isomer, unassigned) [Compound 63]	1.64	6.7
COc1nc2ccc(Br)cc2cc1C(c1ccccc1)C(O)(CCCN(C)C)c1ccccc1 (single isomer, unassigned) [Compound 64]	6.54	5.8
COc1nc2ccc(Br)cc2cc1C(c1ccccc1)C(O)(CCCCN(C)C)c1ccccc1 (single isomer, unassigned) [Compound 65]	1.69	5.7
COc1nc2ccc(Br)cc2cc1C(c1ccccc1)C(O)(CCCCN(C)C)c1ccccc1 (single isomer, unassigned) [Compound 66]	1.69	4.7
COc1nc2ccc(Br)cc2cc1C(c1ccccc1)C(O)(CCc1ccccc1)CCN(C)C (single isomer, unassigned) [Compound 96]	21.24	6.2
COc1ccc2nc(OC)c(C(c3ccccc3)C(O)(CCN(C)C)c3cccc4ccccc34)cc2c1 (single isomer, unassigned) [Compound 97]	20.17	5.9
COc1ccc2nc(OC)c(C(c3ccccc3)C(O)(CCN(C)C)c3cccc4ccccc34)cc2c1 (single isomer, unassigned) [Compound 98]	0.51	7.9
